{"source": "patent US20220323761A1", "about": "“METHOD FOR INDUCING HIBERNATION-LIKE STATE AND DEVICE SAME” (University of Tsukuba, priority 2019, published 2022)", "key": {"[1]": {"test_system": "Q-neurons in the AVPe, MPA and Pe", "assay": "Fos immunostaining of brain sections of Q-hM3D mice after CNO IP", "format": "in vivo", "conditions": "90 minutes after CNO IP", "experimental": "Each mouse was deeply anesthetized with isoflurane, transcardially perfused with 10% sucrose in water, and then perfused with ice-cooled 4% paraformaldehyde (4% PFA) in a 0.1 M phosphate buffer having a pH of 7.4, and the brain was removed. After being left in the 4% PFA overnight at 4° C., the brain was fixed, incubated overnight at 4° C. in a 0.1 M phosphate buffered saline (PBS) having a pH of 7.4, in 30% sucrose, immersed in a Tissuue-Tek O.C.T. compound (Sakura) in a cryomold, and frozen at −80° C. until sectioned. With the use of a cryostat (CM1860, Leica), the brain was sliced into coronal sections in four equal series every 50 μm, collected in a 6-well plate filled with ice-cooled PBS, and washed three times with PBS at room temperature (RT). Unless otherwise specified, the following incubation process was carried out while gently shaking on an orbital shaker. […]\nThe primary antibodies used in this research were rabbit anti-cFos (1:4000, ABE457, Millipore), goat anti-mCherry (1:15000, AB0040-200, SICGEN), rat anti-GFP (1:5000, 04404-84, NACALAI TESQUE), mouse anti-TH (1:1000, sc-25269, Santa Cruz Biotechnology), mouse anti-orexin A (1:200, sc-80263, Santa Cruz Biotechnology), and rabbit anti-MCH (1:2000, M8440, SIGMA). […] Brain regions were determined using a mouse brain map from Paxinos and Franklin^36."}, "[2]": {"test_system": "hM3Dq-mCherry expressing neurons", "assay": "Electrophysiological study of hypothalamus slices, current-clamp firing", "format": "cell-based", "conditions": "bath-application, CNO 1 μM, slices of Q-hM3D mice", "experimental": "The mice were decapitated under deep anesthesia using isoflurane (Pfizer). The brains were extracted and cooled in an ice-cold cutting solution containing the following (mM): 125 mM choline chloride, 25 mM NaHCO3, 10 mM D(+)-glucose, 7 mM MgCl2, 2.5 mM KCl, 1.25 mM NaH2PO4, and 0.5 mM CaCl2) bubbled with O2 (95%) and CO2 (5%). Horizontal brain slices (thickness of 250 μm) including the hypothalamus were prepared using a vibratome (VT1200S, Leica) and were maintained at room temperature for one hour in artificial CSF (ACSF) containing the following (mM): 125 mM NaCl, 26 mM NaHCO3, 10 mM D(+)-glucose, 2.5 mM KCl, 2 mM CaCl2), and 1 mM MgSO4 bubbled with O2 (95%) and CO2 (5%). The electrodes (5 to 8 MΩ) were filled with an internal solution containing the following (mM): 125 mM K-gluconate, 10 mM HEPES, 10 mM phosphocreatine, 0.05 mM tolbutamide, 4 mM NaCl, 4 mM ATP, 2 mM MgCl2, 0.4 mM GTP, and 0.2 mM EGTA, with a pH of 7.3 and adjusted with KOH). Firing of hM3Dq-mCherry expressing neurons was recorded in a current-clamp mode at a temperature of 30° C. CNO (1 μM) was bath-applied, and the effect was examined. The membrane voltage and data acquisition were controlled using a combination of the MultiClamp 700B amplifier, the Digidata 1440A A/D converter and Clampex 10.3 software (Molecular Devices). […]"}}}
{"smiles": "C[N+]1([O-])CCN(C2=Nc3cc(Cl)ccc3Nc3ccccc32)CC1", "note": "[CNO, clozapine N-oxide]", "values": [{"measurement": "in vivo excitation of neurons (mCherry and Fos double positive)", "setting": "[1]", "result": "confirmed"}, {"measurement": "excitation of mCherry-positive neurons", "setting": "[2]", "result": "strongly excited"}]}
